US20130281467A1, “NOVEL MICROBICIDES” (SYNGENTA PARTICIPATIONS AG, priority 2010, published 2013)

Tests used:
[1] = system: Botryotinia fuckeliana (Botrytis cinerea); test: Fungicidal activity against Botryotinia fuckeliana (Botrytis cinerea) / liquid culture (gray mould); assay type: cell-based; settings: 3-4 days after application, read-out: disease control (inhibition of growth, photometrically)
Protocol: Fungicidal Activity Against Botryotinia fuckeliana (Botrytis cinerea)/Liquid Culture (Gray Mould) Conidia of the fungus from cryogenic storage were directly mixed into nutrient broth (Vogels broth). After placing a (DMSO) solution of test compound into a microtiter plate (96-well format), the nutrient broth containing the fungal spores was added. The test plates were incubated at 24° C. and the inhibition of growth was determined photometrically 3-4 days after application.

Gaeumannomyces graminis = test: Fungicidal activity against Gaeumannomyces graminis / liquid culture (take-all of cereals); assay type: cell-based; settings: 4-5 days after application, read-out: disease control (inhibition of growth, photometrically)
Protocol: (§1) Fungicidal Activity Against Gaeumannomyces graminis/Liquid Culture (Take-all of Cereals) Mycelial fragments of the fungus from cryogenic storage were directly mixed into nutrient broth (PDB potato dextrose broth). After placing a (DMSO) solution of test compound into a microtiter plate (96-well format), the nutrient broth containing the fungal spores iss added. The test plates were incubated at 24° C. and the inhibition of growth was determined photometrically 4-5 days after application.

[2] = system: Glomerella lagenarium (Colletotrichum lagenarium); test: Fungicidal activity against Glomerella lagenarium (Colletotrichum lagenarium) / liquid culture (anthracnose); assay type: cell-based; settings: Colletotrichum orbiculare, 3-4 days after application, read-out: disease control (inhibition of growth, photometrically)
Protocol: as §1, with “Glomerella lagenarium (Colletotrichum lagenarium)/Liquid” for “Gaeumannomyces graminis/Liquid”, “(Anthracnose) Conidia” for “(Take-all of Cereals) Mycelial fragments”, “was” for “iss”, “measured” for “determined”, “3-4” for “4-5”

[3] = system: Monographella nivalis (Microdochium nivale); test: Fungicidal activity against Monographella nivalis (Microdochium nivale) / liquid culture (foot rot cereals); assay type: cell-based; settings: 4-5 days after application, read-out: disease control (inhibition of growth, photometrically)
Protocol: as §1, with “Monographella nivalis (Microdochium nivale)/Liquid” for “Gaeumannomyces graminis/Liquid”, “(Foot Rot” for “(Take-all of”, “Conidia” for “Mycelial fragments”, “was” for “iss”

[4] = system: Mycosphaerella arachidis (Cercospora arachidicola); test: Fungicidal activity against Mycosphaerella arachidis (Cercospora arachidicola) / liquid culture (early leaf spot); assay type: cell-based; settings: 4-5 days after application, read-out: disease control (inhibition of growth, photometrically)
Protocol: as §1, with “Mycosphaerella arachidis (Cercospora arachidicola)/Liquid” for “Gaeumannomyces graminis/Liquid”, “(Early Leaf Spot) Conidia” for “(Take-all of Cereals) Mycelial fragments”, “was” for “iss”

[5] = system: Mycosphaerella graminicola (Septoria tritici); test: Fungicidal activity against Mycosphaerella graminicola (Septoria tritici) / liquid culture (Septoria blotch); assay type: cell-based; settings: Zymoseptoria tritici, 4-5 days after application, read-out: disease control (inhibition of growth, photometrically)
Protocol: as §1, with “Mycosphaerella graminicola (Septoria tritici)/Liquid” for “Gaeumannomyces graminis/Liquid”, “(Septoria Blotch) Conidia” for “(Take-all of Cereals) Mycelial fragments”, “was” for “iss”

[6] = system: Phaeosphaeria nodorum (Septoria nodorum); test: Fungicidal activity against Phaeosphaeria nodorum (Septoria nodorum) / wheat / leaf disc preventative (glume blotch); assay type: in vivo; settings: Parastagonospora nodorum, foliar, wheat leaf segments, inoculated 2 days after application, compared to untreated, read-out: disease control
Protocol: Fungicidal Activity Against Phaeosphaeria nodorum (Septoria nodorum)/Wheat/Leaf Disc Preventative (Glume Blotch) Wheat leaf segments cv. Kanzler were placed on agar in a multiwell plate (24-well format) and sprayed with the formulated test compound diluted in water. The leaf disks were inoculated with a spore suspension of the fungus 2 days after application. The inoculated test leaf disks were incubated at 20° C. and 75% rh under a light regime of 12 h light/12 h darkness in a climate cabinet and the activity of a compound was assessed as percent disease control compared to untreated when an appropriate level of disease damage appears in untreated check leaf disks (5-7 days after application).

[7] = system: Puccinia recondita f. sp. tritici; test: Fungicidal activity against Puccinia recondita f. sp. tritici / wheat / leaf disc preventative (brown rust); assay type: in vivo; settings: foliar, wheat leaf segments, inoculated 1 day after application, compared to untreated, read-out: disease control
Protocol: Fungicidal Activity Against Puccinia recondita f. sp. tritici/Wheat/Leaf Disc Preventative (Brown Rust) Wheat leaf segments cv. Kanzler were placed on agar in multiwell plates (24-well format) and sprayed with the formulated test compound diluted in water. The leaf disks were inoculated with a spore suspension of the fungus 1 day after application. The inoculated leaf segments were incubated at 19° C. and 75% rh under a light regime of 12 h light/12 h darkness in a climate cabinet and the activity of a compound was assessed as percent disease control compared to untreated when an appropriate level of disease damage appears in untreated check leaf segments (7-9 days after application).

[8] = system: Thanatephorus cucumeris (Rhizoctonia solani); test: Fungicidal activity against Thanatephorus cucumeris (Rhizoctonia solani) / liquid culture (foot rot, damping-off); assay type: cell-based; settings: 3-4 days after application, read-out: disease control (inhibition of growth, photometrically)
Protocol: Fungicidal Activity Against Thanatephorus cucumeris (Rhizoctonia solani)/Liquid Culture (Foot Rot, Damping-Off) Mycelia fragments of a newly grown liquid culture of the fungus were directly mixed into nutrient broth (PDB potato dextrose broth). After placing a (DMSO) solution of the test compounds into a microtiter plate (96-well format), the nutrient broth containing the fungal material was added. The test plates were incubated at 24° C. and the inhibition of growth was determined photometrically 3-4 days after application.

[9] = system: Blumeria graminis f. Sp. tritici (Erysiphe graminis f. sp. tritici); test: Fungicidal activity against Blumeria graminis f. sp. tritici / wheat / leaf disc preventative (powdery mildew on wheat); assay type: in vivo; settings: foliar, wheat leaf segments, inoculated 1 day after application, compared to untreated, read-out: disease control
Protocol: Fungicidal Activity Against Blumeria graminis f. Sp. tritici (Erysiphe graminis f. sp. tritici)/Wheat/Leaf Disc Preventative (Powdery Mildew on Wheat)
Wheat leaf segments cv. Kanzler were placed on agar in a multiwell plate (24-well format) and sprayed with the formulated test compound diluted in water. The leaf disks were inoculated by shaking powdery mildew infected plants above the test plates 1 day after application. The inoculated leaf disks were incubated at 20° C. and 60% rh under a light regime of 24 h darkness followed by 12 h light/12 h darkness in a climate chamber and the activity of a compound was assessed as percent disease control compared to untreated when an appropriate level of disease damage appears on untreated check leaf segments (6-8 days after application).

Pyrenophora teres = test: Fungicidal activity against Pyrenophora teres / barley / leaf disc preventative (net blotch); assay type: in vivo; settings: foliar, barley leaf segments, inoculated 2 days after application, compared to untreated, read-out: disease control
Protocol: Fungicidal Activity Against Pyrenophora teres/Barley/Leaf Disc Preventative (Net Blotch) Barley leaf segments cv. Hasso were placed on agar in a multiwell plate (24-well format) and sprayed with the formulated test compound diluted in water. The leaf segments were inoculated with a spore suspension of the fungus 2 days after application. The inoculated leaf segments were incubated at 20° C. and 65% rh under a light regime of 12 h light/12 h darkness in a climate cabinet and the activity of a compound was assessed as disease control compared to untreated when an appropriate level of disease damage appears in untreated check leaf segments (5-7 days after application).

CO/N=C1\CC(C)(C)Cc2nc(-c3cccc(Cc4ccccc4)n3)ncc21 [Compound 23]
≥ 80%: inhibition at 200 ppm [1] | inhibition at 200 ppm (Gaeumannomyces graminis) | inhibition at 200 ppm [2] | inhibition at 200 ppm [3] | inhibition at 200 ppm [4] | inhibition at 200 ppm [5]

CO/N=C1\CCCc2nc(-c3cccc(Cc4ccccc4Cl)n3)ncc21 [Compound 24]
≥ 80%: inhibition at 200 ppm [1] | inhibition at 200 ppm (Gaeumannomyces graminis) | inhibition at 200 ppm [2] | inhibition at 200 ppm [3] | inhibition at 200 ppm [4] | inhibition at 200 ppm [5] | pest or weed control at 200 ppm [6] | pest or weed control at 200 ppm [7] | inhibition at 200 ppm [8]

c1ccc(Cc2cccc(-c3ncc4c(n3)C3CCC4C3)n2)cc1 (stereo not shown) [Compound 26]
≥ 80%: pest or weed control at 200 ppm [9] | inhibition at 200 ppm [1] | inhibition at 200 ppm (Gaeumannomyces graminis) | inhibition at 200 ppm [2] | inhibition at 200 ppm [3] | inhibition at 200 ppm [4] | inhibition at 200 ppm [5] | pest or weed control at 200 ppm [6] | pest or weed control at 200 ppm [7] | pest or weed control at 200 ppm (Pyrenophora teres) | inhibition at 200 ppm [8]

CO/N=C1\CCCc2nc(-c3cccc(Cc4ccccc4OC)n3)ncc21 [Compound 27]
≥ 80%: pest or weed control at 200 ppm [9] | inhibition at 200 ppm [1] | inhibition at 200 ppm (Gaeumannomyces graminis) | inhibition at 200 ppm [2] | inhibition at 200 ppm [3] | inhibition at 200 ppm [4] | inhibition at 200 ppm [5] | pest or weed control at 200 ppm [6] | pest or weed control at 200 ppm [7] | pest or weed control at 200 ppm (Pyrenophora teres)

Clc1ccccc1Cc1cccc(-c2ncc3c(n2)OCCO3)n1 [Compound 28]
≥ 80%: pest or weed control at 200 ppm [9] | inhibition at 200 ppm [1] | inhibition at 200 ppm (Gaeumannomyces graminis) | inhibition at 200 ppm [2] | inhibition at 200 ppm [3] | inhibition at 200 ppm [4] | inhibition at 200 ppm [5] | pest or weed control at 200 ppm [6] | pest or weed control at 200 ppm [7] | pest or weed control at 200 ppm (Pyrenophora teres) | inhibition at 200 ppm [8]

c1ccc(Cc2cccc(-c3ncc4c(n3)CCCCC4)n2)cc1 [Compound 29, 2-(6-Benzyl-pyridin-2-yl)-6,7,8,9-tetrahydro-5H-cycloheptapyrimidine]
≥ 80%: pest or weed control at 200 ppm [9] | inhibition at 200 ppm [1] | inhibition at 200 ppm (Gaeumannomyces graminis) | inhibition at 200 ppm [2] | inhibition at 200 ppm [3] | inhibition at 200 ppm [4] | inhibition at 200 ppm [5] | pest or weed control at 200 ppm [6] | pest or weed control at 200 ppm [7] | pest or weed control at 200 ppm (Pyrenophora teres) | inhibition at 200 ppm [8]

Cc1ccc(Cc2cccc(-c3ncc4c(n3)CCCCC4)n2)cc1 [Compound 30]
≥ 80%: pest or weed control at 200 ppm [9] | inhibition at 200 ppm [1] | inhibition at 200 ppm (Gaeumannomyces graminis) | inhibition at 200 ppm [2] | inhibition at 200 ppm [3] | inhibition at 200 ppm [4] | inhibition at 200 ppm [5] | pest or weed control at 200 ppm [6] | pest or weed control at 200 ppm [7] | pest or weed control at 200 ppm (Pyrenophora teres) | inhibition at 200 ppm [8]

Cc1cccc(Cc2cccc(-c3ncc4c(n3)CCCCC4)n2)c1 [Compound 31]
≥ 80%: pest or weed control at 200 ppm [9] | inhibition at 200 ppm (Gaeumannomyces graminis) | inhibition at 200 ppm [2] | inhibition at 200 ppm [4] | inhibition at 200 ppm [5] | pest or weed control at 200 ppm [6] | pest or weed control at 200 ppm [7] | pest or weed control at 200 ppm (Pyrenophora teres) | inhibition at 200 ppm [8]

Cc1ccccc1Cc1cccc(-c2ncc3c(n2)CCCCC3)n1 [Compound 32]
≥ 80%: pest or weed control at 200 ppm [9] | inhibition at 200 ppm [1] | inhibition at 200 ppm (Gaeumannomyces graminis) | inhibition at 200 ppm [2] | inhibition at 200 ppm [3] | inhibition at 200 ppm [4] | inhibition at 200 ppm [5] | pest or weed control at 200 ppm [6] | pest or weed control at 200 ppm [7] | pest or weed control at 200 ppm (Pyrenophora teres) | inhibition at 200 ppm [8]

COc1ccccc1Cc1cccc(-c2ncc3c(n2)CCCCC3)n1 [Compound 34]
≥ 80%: pest or weed control at 200 ppm [9] | inhibition at 200 ppm [1] | inhibition at 200 ppm (Gaeumannomyces graminis) | inhibition at 200 ppm [2] | inhibition at 200 ppm [3] | inhibition at 200 ppm [4] | inhibition at 200 ppm [5] | pest or weed control at 200 ppm [6] | pest or weed control at 200 ppm [7] | pest or weed control at 200 ppm (Pyrenophora teres) | inhibition at 200 ppm [8]

Cc1ccc(Cc2cccc(-c3ncc4c(n3)CC(C)(C)CC4)n2)cc1 [Compound 36]
≥ 80%: pest or weed control at 200 ppm [9] | inhibition at 200 ppm [1] | inhibition at 200 ppm (Gaeumannomyces graminis) | inhibition at 200 ppm [2] | inhibition at 200 ppm [3] | inhibition at 200 ppm [4] | inhibition at 200 ppm [5] | pest or weed control at 200 ppm [6] | pest or weed control at 200 ppm (Pyrenophora teres) | inhibition at 200 ppm [8]

COc1ccc(Cc2cccc(-c3ncc4c(n3)CCCCC4)n2)cn1 [Compound 39, 2-[6-(6-Methoxy-pyridin-3-ylmethyl)-pyridin-2-yl]-6,7,8,9-tetrahydro-5H-cycloheptapyrimidine]
≥ 80%: pest or weed control at 200 ppm [9] | inhibition at 200 ppm (Gaeumannomyces graminis) | inhibition at 200 ppm [2] | inhibition at 200 ppm [4] | inhibition at 200 ppm [5] | pest or weed control at 200 ppm [6] | pest or weed control at 200 ppm [7] | pest or weed control at 200 ppm (Pyrenophora teres)

COc1ccc(C(C)c2cccc(-c3ncc4c(n3)CC(C)(C)CC4)n2)cn1 (stereo not shown) [Compound 43]
≥ 80%: pest or weed control at 200 ppm [9] | inhibition at 200 ppm [1] | inhibition at 200 ppm (Gaeumannomyces graminis) | inhibition at 200 ppm [2] | inhibition at 200 ppm [3] | inhibition at 200 ppm [4] | inhibition at 200 ppm [5] | pest or weed control at 200 ppm [6] | pest or weed control at 200 ppm (Pyrenophora teres)
